Results on 23 compounds are retold here after patent publication US6465482B2, “Arylpiperazinyl-cyclohexyl indole derivatives for the treatment of depression” (Wyeth, priority 1999, dated 2002).

In test [1] the target is T1, human 5-HT1A receptor subtype (Homo sapiens, UniProt P08908).
T1 construct: expressed in transfected cells
T1 sequence (P08908 1-422): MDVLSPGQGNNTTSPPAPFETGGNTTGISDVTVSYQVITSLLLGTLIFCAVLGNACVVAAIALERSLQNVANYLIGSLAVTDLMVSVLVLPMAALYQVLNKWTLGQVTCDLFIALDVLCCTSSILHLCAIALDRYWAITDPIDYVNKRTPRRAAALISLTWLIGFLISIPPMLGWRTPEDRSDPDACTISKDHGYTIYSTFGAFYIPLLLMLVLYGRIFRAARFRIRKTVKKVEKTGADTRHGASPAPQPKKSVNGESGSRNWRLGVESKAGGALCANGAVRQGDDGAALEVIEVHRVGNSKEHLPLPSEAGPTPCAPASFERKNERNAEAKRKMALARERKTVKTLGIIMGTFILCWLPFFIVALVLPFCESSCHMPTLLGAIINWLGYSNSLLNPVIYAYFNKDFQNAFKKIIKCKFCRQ
The experiment in a line: 5-HT1A receptor binding, [3H]8-OH-DPAT, CHO cell membranes. To be noted: for Ki: [3H]8-OH-DPAT 1.5 nM; for 5-HT1A, value given as %: concentration not given. The method, then:
(§1) The PCR cloning of the human 5-HT1A receptor subtype from a human genomic library has been described previously Chanda et al., Mol. Pharmacol., 43:516 (1993). A stable Chinese hamster ovary cell line expressing the human 5-HT1A receptor subtype (5-HT1A.CH2O cells) was employed throughout this study. Cells were maintained in DMEM supplemented with 10% fetal calf serum, non-essential amino acids and penicillin/streptomycin.
Cells were grown to 95-100% confluency as a monolayer before membranes were harvested for binding studies. Cells were gently scraped from the culture plates, transferred to centrifuge tubes, and washed twice by centrifugation (2000 rpm for 10 min., 4° C.) in buffer (50 mM Tris; pH 7.5). The resulting pellets were aliquoted and placed at −80° C. On the day of assay, the cells were thawed on ice, and resuspended in buffer. Studies were conducted using [^3H]8-OH-DPAT as the radioligand. The binding assay was performed in 96 well microtiter plates in a final total volume of 250 μL of buffer. Competition experiments were performed by using 7 concentrations of unlabelled drug and a final ligand concentration of 1.5 nM. Non-specific binding was determined in the presence of 10 μM 5HT. Saturation analysis was conducted by using [^3H]8-OH-DPAT at concentaritions ranging from 0.3-30 nm Following a 30 minute incubation at room temperature, the reaction was terminated by the addition of ice cold buffer and rapid filtration using a M-96 Brandel Cell Harvester (Gaithersburg, Md.) through a GF/B filter presoaked for 30 minutes in 0.5% polyethylenenimine.

Test [2] addresses T2, human 5-HT1A receptor subtype (5-HT1A CHO cells) (Homo sapiens, UniProt P08908).
T2 construct: expressed in transfected cells
T2 sequence (P08908 1-422): T1 sequence (P08908 1-422)
The test is described as follows: forskolin-stimulated cAMP formation (cAMP SPA assay). In kind it is cell-based. The note with it: forskolin 1 uM. The method, then: as §1
The following assays were performed by incubating the cells with DMEM containing 25 mM HEPES, 5 mM theophylline and 10 μM pargyline for a period of 20 minutes at 37° C. Functional activity was assessed by treating the cells with forskolin (1 uM final concentration) followed immediately by test compound (6 concentrations) for an additional 10 minutes at 37° C. In separate experiments, 6 concentrations of antagonist were preincubated for 20 minutes prior to the addition of 10 nM 8-OH-DPAT and forskolin. The reaction was terminated by removal of the media and addition of 0.5 ml ice cold assay buffer. Plates were stored at −20° C. prior to assessment of cAMP formation by a cAMP SPA assay (Amersham).

For test [3], the target named is T3, serotonin transporter (Rattus norvegicus, UniProt P31652).
T3 construct: frontal cortical membranes prepared from male Sprague-Dawley rats; from tissue; host or cells: rat frontal cortex membranes
T3 sequence (P31652 whole entry): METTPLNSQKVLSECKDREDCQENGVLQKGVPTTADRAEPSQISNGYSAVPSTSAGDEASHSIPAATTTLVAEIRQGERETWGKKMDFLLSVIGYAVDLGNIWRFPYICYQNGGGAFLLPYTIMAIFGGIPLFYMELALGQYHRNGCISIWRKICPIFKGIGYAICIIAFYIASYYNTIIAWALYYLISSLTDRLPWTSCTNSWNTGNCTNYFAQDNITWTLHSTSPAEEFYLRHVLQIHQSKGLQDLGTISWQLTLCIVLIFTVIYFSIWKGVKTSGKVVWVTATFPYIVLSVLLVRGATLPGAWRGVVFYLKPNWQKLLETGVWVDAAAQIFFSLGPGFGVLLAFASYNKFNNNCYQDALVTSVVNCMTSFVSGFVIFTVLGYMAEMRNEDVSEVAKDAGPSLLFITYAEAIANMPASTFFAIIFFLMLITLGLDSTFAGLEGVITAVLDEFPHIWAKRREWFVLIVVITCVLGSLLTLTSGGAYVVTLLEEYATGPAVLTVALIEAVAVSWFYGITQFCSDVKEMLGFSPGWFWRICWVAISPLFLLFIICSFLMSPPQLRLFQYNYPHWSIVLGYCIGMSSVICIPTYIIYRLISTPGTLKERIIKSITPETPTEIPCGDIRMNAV
The experiment in a line: serotonin transporter affinity, 3H-paroxetine binding, frontal cortical membranes. To be noted: for Ki: 3H-paroxetine 0.1 nM, read-out: ST (Ki, nM,). The method, then: A protocol similar to that used by Cheetham et al., Neuropharmacol. […] Briefly, frontal cortical membranes prepared from male Sprague-Dawley rats were incubated with ^3H-paroxetine (0.1 nM) for 60 minutes at 25° C. […] All reactions are terminated by the addition of ice cold Tris buffer followed by rapid filtration using a Tom Tech filtration device to separate bound from free ^3H-paroxetine.

One may read the Ki as the dissociation constant of the complex between target and ligand, obtained from inhibition or displacement. The term Emax denotes the size of the effect at its maximum, as opposed to the concentration needed.

For the compound `c1cc(N2CCN([C@H]3CC[C@@H](c4c[nH]c5ncccc54)CC3)CC2)c2cc[nH]c2c1` [Example 10a, 3-{(1,4-cis)-4-[4-(1H-Indole-4-yl)-piperazin-1-yl]-cyclohexyl}-1H-pyrrolo[2,3-b]pyridine], in test [1], the Ki is 0.0158 µM. The compound also registered an Emax in test [2] of 0%. Turning to `CC(C)n1cc([C@H]2CC[C@@H](N3CCN(c4cccc5[nH]ccc45)CC3)CC2)c2cc(C#N)ccc21` [Example 15a, 3-{(1,4-cis)-4-[4-(1H-indol-4-yl)-piperazin-1-yl]-cyclohexyl}-1-isopropyl-1H-indole-5-carbonitrile], the Ki in test [3] was determined as 28 nM. In the case of `CC(C)n1cc([C@H]2CC[C@H](N3CCN(c4cccc5[nH]ccc45)CC3)CC2)c2cc(C#N)ccc21` [Example 15b, 3-{(1,4-trans)-4-[4-(1H-indol-4-yl)-piperazin-1-yl]-cyclohexyl}-1-isopropyl-1H-indole-5-carbonitrile], the “ST, value given as %” value in test [3] (concentration not given) was 16%. Consider `N#Cc1ccc2c(c1)c([C@H]1CC[C@@H](N3CCN(c4cccc5[nH]ccc45)CC3)CC1)cn2Cc1ccccc1` [Example 16a, 1-Benzyl-3-{(1,4-cis)-4-[4-(1H-indol-4-yl)-piperazin-1-yl]-cyclohexyl}-1H-indole-5-carbonitrile], for which the “5-HT1A, value given as %” value in test [1] was determined as 0%. Further, in test [3], the Ki was 29 nM.

For `N#Cc1ccc2c(c1)c([C@H]1CC[C@H](N3CCN(c4cccc5[nH]ccc45)CC3)CC1)cn2Cc1ccccc1` [Example 16b, 1-Benzyl-3-{(1,4-trans)-4-[4-(1H-indol-4-yl)-piperazin-1-yl]-cyclohexyl}-1H-indole-5-carbonitrile], in test [1] (100 nM), the “5-HT1A, % @ 100 nM” value was found to be 0% @. In test [3] (100 nM), the “ST, % 100 nM” value came to 25%.

For `Cn1ccc2c(N3CCN([C@H]4CC[C@@H](c5cn(C)c6ccc(C#N)cc65)CC4)CC3)cccc21` [Example 17, 1-Methyl-3-{(1,4-cis)-4-[4-(1-methyl-1H-indol-4-yl)-piperazin-1-yl]-cyclohexyl}-1H-indole-5-carbonitrile], the “5-HT1A, value given as %” value in test [1] came out at 0%. Further, the Ki in test [3] came out at 2.5 nM. Regarding `COc1ccccc1C1CCN([C@H]2CC[C@@H](c3c[nH]c4ccc(F)cc43)CC2)CC1` [Example 19a, 5-Fluoro-3-{(1,4-cis)-4-[4-(2-methoxy-phenyl)-piperidin-1-yl]-cyclohexyl}-1H-indole], the Ki in test [1] turned out to be 0.264 µM; in test [3], 5.72 nM.

With `Fc1cccc2[nH]cc([C@H]3CC[C@H](N4CCN(c5cccc6c5OCCO6)CC4)CC3)c12` [Example 23b, 3-{(1,4-trans)-4-[4-(2,3-Dihydro-benzo[1,4]dioxin-5-yl)-piperazin-1-yl]-cyclohexyl}-4-fluoro-1H-indole], the Ki in test [1] is 0.0149 µM. `Fc1ccc2[nH]cc([C@H]3CC[C@H](N4CCN(c5cccc6c5OCCO6)CC4)CC3)c2c1` [Example 24b, 3-{(1,4-trans)-4-[4-(2,3-Dihydro-benzo[1,4]dioxin-5-yl)-piperazin-1-yl]-cyclohexyl}-5-fluoro-1H-indole]: the Ki was 0.0113 µM in test [1] and 36 nM in test [3]. `Fc1ccc2[nH]cc([C@H]3CC[C@@H](N4CCN(c5cccc6cccnc56)CC4)CC3)c2c1` [Example 27a, 8-{4-[(1,4-cis)-4-(5-Fluoro-1H-indol-3-yl)-cyclohexyl]-piperazin-1-yl}-quinoline] yielded a Ki in test [1] of 0.0697 µM.

In turn, `Fc1ccc2[nH]cc([C@H]3CC[C@H](N4CCN(c5cccc6cccnc56)CC4)CC3)c2c1` [Example 27b, 8-{4-[(1,4-trans)-4-(5-Fluoro-1H-indol-3-yl)-cyclohexyl]-piperazin-1-yl}-quinoline] showed a Ki in test [1] of 0.00654 µM. Take `Cn1cc([C@H]2CC[C@@H](N3CCN(c4cccc5cccnc45)CC3)CC2)c2cc(F)ccc21` [Example 28, 8-{4-(1,4-cis)-4-[4-(5-Fluoro-1-methyl-1H-indol-3-yl)-cyclohexyl]-piperazin-1-yl}-quinoline]: the inhibitory constant (Ki) came out at 0.0251 µM in test [1] and 2.02 nM in test [3]. Turning to `Fc1cc2c(c(N3CCN([C@H]4CC[C@@H](c5c[nH]c6ccc(F)cc65)CC4)CC3)c1)OCCC2` [Example 31a, 5-Fluoro-3-{(1,4-cis)-4-[4-(6-fuoro-chroman-8-yl)-piperazin-1-yl]-cyclohexyl}-1H-indole], the Ki in test [1] is 0.142 µM; in test [3], 13 nM. As to `Fc1cc2c(c(N3CCN([C@H]4CC[C@H](c5c[nH]c6ccc(F)cc65)CC4)CC3)c1)OCCC2` [Example 31b, 5-Fluoro-3-{(1,4-trans)-4-[4-(6-fluoro-chroman-8-yl)-piperazin-1-yl]-cyclohexyl}-1H-indole], the Ki in test [1] came out at 0.0324 µM. Regarding `Fc1cc2c(c(N3CCN([C@H]4CC[C@@H](c5c[nH]c6ccc(F)cc65)CC4)CC3)c1)OCC2` [Example 32a, 5-Fluoro-3-{(1,4-cis)-4-[4-(5-fluoro-2,3-dihydro-benzofuran-7-yl)-piperazin-1-yl]-cyclohexyl}-1H-indole], the Ki was 0.246 µM in test [1] and 14 nM in test [3].

Regarding `Fc1cc2c(c(N3CCN([C@H]4CC[C@H](c5c[nH]c6ccc(F)cc65)CC4)CC3)c1)OCC2` [Example 32b, 5-Fluoro-3-{(1,4-trans)-4-[4-(5-fluoro-2,3-dihydro-benzofuran-7-yl)-piperazin-1-yl]-cyclohexyl}-1H-indole], the inhibitory constant (Ki) in test [1] amounted to 0.0491 µM. As to `N#Cc1ccc2[nH]cc([C@H]3CC[C@@H](N4CCN(c5cc(F)cc6c5OCC6)CC4)CC3)c2c1` [Example 33a, 3-{(1,4-cis)-4-[4-(5-Fluoro-2,3-dihydro-benzofuran-7-yl)-piperazin-1-yl]-cyclohexyl}-1H-indole-5-carbonitrile], the Ki in test [1] stood at 0.0989 µM; in test [3], 1.9 nM. Regarding `N#Cc1ccc2[nH]cc([C@H]3CC[C@H](N4CCN(c5cc(F)cc6c5OCC6)CC4)CC3)c2c1` [Example 33b, 3-{(1,4-trans)-4-[4-(5-Fluoro-2,3-dihydro-benzofuran-7-yl)-piperazin-1-yl]-cyclohexyl}-1H-indole-5-carbonitrile], the results for the Ki in test [1] and in test [3] were 0.0192 µM and 45 nM, respectively. Regarding `Cn1cc([C@H]2CC[C@@H](N3CCN(c4cc(F)cc5c4OCC5)CC3)CC2)c2cc(C#N)ccc21` [Example 33c, 3-{(1,4-cis)-4-[4-(5-Fluoro-2,3-dihydro-benzofuran-7-yl)-piperazin-1-yl]-cyclohexyl}-1-methyl-1H-indole-5-carbonitrile], the Ki worked out at 0.431 µM in test [1] and 7.1 nM in test [3]. As to `N#Cc1ccc2[nH]cc([C@H]3CC[C@@H](N4CCN(c5cccc6ccoc56)CC4)CC3)c2c1` [Example 34a], the values for the Ki in test [1] and in test [3] were 0.185 µM and 1.49 nM, respectively. With `N#Cc1ccc2[nH]cc([C@H]3CC[C@H](N4CCN(c5cccc6ccoc56)CC4)CC3)c2c1` [Example 34b], the Ki in test [1] was determined as 0.00837 µM; in test [3], 17 nM. In the case of `Cn1cc([C@H]2CC[C@@H](N3CCN(c4cccc5[nH]ccc45)CC3)CC2)c2cc(F)ccc21` [Example 38, 5-Fluoro-3-{cis-4-[4-(1H-indol-4-yl)-piperazinyl]-cyclohexyl}-1-methyl-1H-indole], the Ki in test [1] stood at 0.124 µM; in test [3], 7.22 nM. For `COc1cc(N2CCN([C@H]3CC[C@@H](c4c[nH]c5ccc(C#N)cc54)CC3)CC2)c2ncccc2c1` [Example 44c, 3-{(1,4-cis)-4-[4-(6-Methoxy-quinolin-8-yl)-piperazin-1-yl]-cyclohexyl}-1H-indole-5-carbonitrile] the same measures were 0.021 µM and 1.5 nM.
